Assay results published in ChEMBL document CHEMBL1149241 (J Med Chem, 2004).

What follows are compounds tested against Beta-secretase 1 (Homo sapiens, UniProt P56817) (assay: Inhibition of BACE1 by electrochemiluminescence assay).
Sequence of Beta-secretase 1 (P56817 whole entry): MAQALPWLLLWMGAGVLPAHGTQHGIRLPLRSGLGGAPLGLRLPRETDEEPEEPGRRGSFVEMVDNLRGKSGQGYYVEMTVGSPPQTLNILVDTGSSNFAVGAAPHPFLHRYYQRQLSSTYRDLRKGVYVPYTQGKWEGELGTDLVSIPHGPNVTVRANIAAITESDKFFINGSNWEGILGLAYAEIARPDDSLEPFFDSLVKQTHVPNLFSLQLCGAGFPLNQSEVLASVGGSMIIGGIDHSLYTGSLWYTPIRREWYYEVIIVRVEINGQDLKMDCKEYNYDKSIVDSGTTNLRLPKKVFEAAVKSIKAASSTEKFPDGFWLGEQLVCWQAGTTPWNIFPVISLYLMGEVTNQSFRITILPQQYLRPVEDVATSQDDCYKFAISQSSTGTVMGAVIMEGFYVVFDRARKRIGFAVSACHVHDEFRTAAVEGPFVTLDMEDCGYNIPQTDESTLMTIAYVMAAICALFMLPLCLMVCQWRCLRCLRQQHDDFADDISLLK

Row | IC50 | SMILES
1 | 21 µM | C[C@@H](NC(=O)c1cc(OCC(=O)NCCCCCN)cc(-c2ccccc2C#N)c1)c1ccccc1
2 | 3.4 µM | C[C@@H](NC(=O)c1cc(OCC(=O)NCCCCCN)cc(OS(=O)(=O)Cc2ccccc2)c1)c1ccccc1
3 | > 100 µM | CC(NC(=O)c1cc(OCC(=O)NCCCCCN)cc(OS(=O)(=O)Cc2ccccc2)c1)c1ccccc1 (single isomer, unassigned)
